Read-outs that look alike come from different tables or passages of the source.
Experiments:
[1] = tested on: patients with major depressive disorders; details: cited from earlier work
[2] = tested on: adult subjects with treatment resistant depression; type: in vivo, human; details: for Non-remitters % / Non-remitters No. / Remitters No. (MADRS total score 10) / Remitters % (MADRS total score 10): ketamine pooled 2x/week and 3x/week; for Duration of response, survival function estimate: Failure / Duration of response, survival function estimate: Survival: ketamine responders (Day 29), follow-up phase; for Response rates, Val/Val vs Met carriers: ketamine subjects
Text: This was a double-blind, randomized, placebo-controlled, parallel arm study to assess the safety and efficacy of ketamine dosed 2 or 3 times weekly in adult subjects with treatment resistant depression. The study consisted of up to 4 phases: a screening phase of up to 4 weeks, a 4-week double-blind treatment phase (Day 1 to Day 29), an optional 2-week open label treatment phase, and a post treatment (follow up) phase of up to 3 weeks.
On Day 1 of the double-blind treatment phase, subjects were randomized to receive either i.v. infusions of placebo 2 times weekly or i.v. infusions of placebo 3 times weekly or i.v. infusions of ketamine 0.50 mg/kg, 2 times weekly or i.v. infusions of ketamine 0.50 mg/kg, 3 times weekly over 4 weeks.
Subjects who discontinued the double-blind treatment phase of the study due to lack of efficacy (based upon the clinical judgment of the investigator) after completion of the Day 15 visit, but prior to the Day 29 visit, may have received open-label ketamine treatment with the same dose frequency for an additional 2 weeks. After completing the Early Termination visit, the subject had study assessments as per the Time and Events Schedule for the optional open-label treatment phase followed by one follow up visit performed 1 week after the last dose of study medication.

NMDA receptor = details: S-enantiomer compared with ketamine; cited from earlier work
[3] = Met carriers, DAY 03 or DAY 04, ketamine pooled 2x/wk and 3x/wk
[4] = Met carriers, DAY 08(DB), ketamine pooled 2x/wk and 3x/wk
[5] = Met carriers, DAY 15(DB), ketamine pooled 2x/wk and 3x/wk
[6] = Met carriers, DAY 29(DB), ketamine pooled 2x/wk and 3x/wk
[7] = Met carriers, Day 0 after Day 29
[8] = Met carriers, Day 10 after Day 29
[9] = Met carriers, Day 11 after Day 29
[10] = Val/Val, DAY 03 or DAY 04, ketamine pooled 2x/wk and 3x/wk
[11] = Val/Val, DAY 08(DB), ketamine pooled 2x/wk and 3x/wk
[12] = Val/Val, DAY 15(DB), ketamine pooled 2x/wk and 3x/wk
[13] = Val/Val, DAY 29(DB), ketamine pooled 2x/wk and 3x/wk

## CNC1(c2ccccc2Cl)CCCCC1=O (racemic) [Ketamine, ketamine]
[1]; MDD patients, LAJE, Biol. Psychiatry 2012
  Likelihood of antidepressant response, Val/Val BDNF allele at rs6265 vs Met carriers: more likely to exhibit antidepressant response to ketamine than Met carriers
[1]; patients with major depressive disorders
  Onset of rapid antidepressant effect: within two hours
[2]; Met carrier group, at Day 39, from 7
  Subjects who remain well, number: 4
[2]; Met carriers (of 8)
  Day 29 responders who maintain response status during the follow-up phase, %: 62.5%
  Day 29 responders who maintain response status during the follow-up phase, number: 5
[2]; Met carriers, DAY 03 or DAY 04
  Non-remitters %: 100.0%
  Non-remitters No.: 13
  Remitters No. (MADRS total score 10): 0
[2]; [3]
  MADRS total score change from baseline, Mean: −6.85
  MADRS total score, Mean: 25.92
  Non-responders %: 92.3%
  Non-responders N: 12
  Responders % (MADRS total score reduction ≥50%): 7.7%
  Responders N (MADRS total score reduction ≥50%): 1
[2]; Met carriers, DAY 08(DB)
  Non-remitters %: 72.7%
  Non-remitters No.: 8
  Remitters % (MADRS total score 10): 27.3%
  Remitters No. (MADRS total score 10): 3
[2]; [4]
  MADRS total score change from baseline, Mean: −15.64
  MADRS total score, Mean: 17.00
  Non-responders %: 54.5%
  Non-responders N: 6
  Responders % (MADRS total score reduction ≥50%): 45.5%
  Responders N (MADRS total score reduction ≥50%): 5
[2]; Met carriers, DAY 15(DB)
  Non-remitters %: 54.5%
  Non-remitters No.: 6
  Remitters % (MADRS total score 10): 45.5%
  Remitters No. (MADRS total score 10): 5
[2]; [5]
  MADRS total score change from baseline, Mean: −17.45
  MADRS total score, Mean: 15.18
  Non-responders %: 45.5%
  Non-responders N: 5
  Responders % (MADRS total score reduction ≥50%): 54.5%
  Responders N (MADRS total score reduction ≥50%): 6
[2]; Met carriers, DAY 29(DB)
  Non-remitters %: 33.3%
  Non-remitters No.: 3
  Remitters % (MADRS total score 10): 66.7%
  Remitters No. (MADRS total score 10): 6
[2]; [6]
  MADRS total score change from baseline, Mean: −22.00
  MADRS total score, Mean: 10.78
  Non-responders %: 11.1%
  Non-responders N: 1
  Responders % (MADRS total score reduction ≥50%): 88.9%
  Responders N (MADRS total score reduction ≥50%): 8
[2]; [7]
  Duration of response, survival function estimate: Failure: 0
  Duration of response, survival function estimate: Survival: 1.0000
[2]; [8]
  Duration of response, survival function estimate: Failure: 0.2857
  Duration of response, survival function estimate: Survival: 0.7143
[2]; [9]
  Duration of response, survival function estimate: Failure: 0.4286
  Duration of response, survival function estimate: Survival: 0.5714
[2]; Val/Val (of 14)
  Day 29 responders who maintain response status during the follow-up phase, %: 64.3%
  Day 29 responders who maintain response status during the follow-up phase, number: 9
[2]; Val/Val and Met carriers together
  Ketamine responders on Day 29, number: 22
[2]; Val/Val, DAY 03 or DAY 04
  Non-remitters %: 95.2%
  Non-remitters No.: 20
  Remitters % (MADRS total score 10): 4.8%
  Remitters No. (MADRS total score 10): 1
[2]; [10]
  MADRS total score change from baseline, Mean: −12.67
  MADRS total score, Mean: 22.29
  Non-responders %: 71.4%
  Non-responders N: 15
  Responders % (MADRS total score reduction ≥50%): 28.6%
  Responders N (MADRS total score reduction ≥50%): 6
[2]; Val/Val, DAY 08(DB)
  Non-remitters %: 80.0%
  Non-remitters No.: 16
  Remitters % (MADRS total score 10): 20.0%
  Remitters No. (MADRS total score 10): 4
[2]; [11]
  MADRS total score change from baseline, Mean: −16.65
  MADRS total score, Mean: 18.50
  Non-responders %: 60.0%
  Non-responders N: 12
  Responders % (MADRS total score reduction ≥50%): 40.0%
  Responders N (MADRS total score reduction ≥50%): 8
[2]; Val/Val, DAY 15(DB)
  Non-remitters %: 77.8%
  Non-remitters No.: 14
  Remitters % (MADRS total score 10): 22.2%
  Remitters No. (MADRS total score 10): 4
[2]; [12]
  MADRS total score change from baseline, Mean: −18.50
  MADRS total score, Mean: 16.11
  Non-responders %: 33.3%
  Non-responders N: 6
  Responders % (MADRS total score reduction ≥50%): 66.7%
  Responders N (MADRS total score reduction ≥50%): 12
[2]; Val/Val, DAY 29(DB)
  Non-remitters %: 35.3%
  Non-remitters No.: 6
  Remitters % (MADRS total score 10): 64.7%
  Remitters No. (MADRS total score 10): 11
[2]; [13]
  MADRS total score change from baseline, Mean: −26.59
  MADRS total score, Mean: 9.59
  Non-responders %: 17.6%
  Non-responders N: 3
  Responders % (MADRS total score reduction ≥50%): 82.4%
  Responders N (MADRS total score reduction ≥50%): 14
[2]; Val/Val, Day 0 after Day 29
  Duration of response, survival function estimate: Failure: 0
  Duration of response, survival function estimate: Survival: 1.0000
[2]; Val/Val, Day 4 after Day 29
  Duration of response, survival function estimate: Failure: 0.1429
  Duration of response, survival function estimate: Survival: 0.8571
[2]; Val/Val, Day 16 after Day 29
  Duration of response, survival function estimate: Failure: 0.2208
  Duration of response, survival function estimate: Survival: 0.7792
[2]; Val/Val, Day 18 after Day 29
  Duration of response, survival function estimate: Failure: 0.3321
  Duration of response, survival function estimate: Survival: 0.6679
[2]; Val/Val, Day 38 after Day 29
  Duration of response, survival function estimate: Failure: 1.0000
  Duration of response, survival function estimate: Survival: 0
[2]; Val/Val, by Day 44, of 14
  Subjects who remain well, number: 12
[2]; ketamine pooled 2x/wk and 3x/wk, over time
  Reduction in MADRS total score, Val/Val vs Met carriers: Larger reductions in MADRS total score over most time points were observed in Val/Val carriers as compared to those Met carriers
[2]; Day 3 or Day 4 and Day 15
  Response rates, Val/Val vs Met carriers: response rates were higher on Day 3 or Day 4 and Day 15 in Val/Val subjects than in Met carriers
[2]; Days 8 and 29
  Response rates, Val/Val vs Met carriers: response rates were similar on Days 8 and 29

## CN[C@]1(c2ccccc2Cl)CCCCC1=O.Cl [Esketamine, (S)-2-(2-chlorophenyl)-2-(methylamino)cyclohexanone hydrochloride]
NMDA receptor
  Potency or affinity for the NMDA receptor: higher potency or affinity
